In PMC6429263, “Evolution and Antibacterial Evaluation of 8-Hydroxy-cycloberberine Derivatives as a Novel Family of Antibacterial Agents Against MRSA” (Molecules, 2019) one finds MIC data, which are given here for four molecules.

One assay concerns S.h ATCC 35982. The assay can be described thus: MIC, agar dilution, S.h ATCC 35982. The class given is cell-based. The following applies: Staphylococcus hominis, ATCC35982; S. hominis ATCC 35982; read-out: MIC.
The subject of the next assay is MRSA ATCC-B AA-1708. As to the kind of experiment: MIC, agar dilution, MRSA ATCC-BAA-1708 (mupA positive). The assay is classed as cell-based. The following applies: Staphylococcus aureus; MRSA ATCC-BAA-1708, mupA positive (mupirocin resistance); read-out: MIC.
For a further assay, the system named is MRSA ATCC 43300. The assay can be described thus: MIC, agar dilution, MRSA ATCC 43300. The class given is cell-based. The following applies: Staphylococcus aureus; MRSA ATCC 43300; read-out: MIC.
The test system of another assay is MRSA 13-23. The assay can be described thus: MIC, agar dilution, MRSA 13-23. The class given is cell-based. To be noted: Staphylococcus aureus; MRSA 13-23; read-out: MIC.
A further assay relates to MRSE 13-3. As to the kind of experiment: MIC, agar dilution, MRSE 13-3. The assay is classed as cell-based, S. epidermidis. To be noted: Staphylococcus epidermidis; MRSE 13-3; read-out: MIC.
The test system of a further assay is MSSE ATCC 12228. The assay can be described thus: MIC, agar dilution, MSSE ATCC 12228. To be noted: Staphylococcus epidermidis, ATCC12228; MSSE ATCC 12228; read-out: MIC. The class given is cell-based, S. epidermidis.
The next assay relates to MSSA ATCC 29213. As to the kind of experiment: MIC, agar dilution, MSSA ATCC 29213. The class given is cell-based, S. aureus. The following applies: Staphylococcus aureus; MSSA ATCC 29213; read-out: MIC.
The test system of another assay is S.s ATCC 15305. The assay can be described thus: MIC, agar dilution, S.s ATCC 15305. The class given is cell-based. To be noted: Staphylococcus saprophyticus, ATCC15305; S. saprophyticus ATCC 15305; read-out: MIC.
The subject of another assay is MRSA 13-18. The assay can be described thus: MIC, agar dilution, MRSA 13-18. The class given is cell-based. The following applies: Staphylococcus aureus; MRSA 13-18; read-out: MIC.
The test system of another assay is MRSE 16-5. As to the kind of experiment: MIC, agar dilution, MRSE 16-5. The class given is cell-based, S. epidermidis. The following applies: Staphylococcus epidermidis; MRSE 16-5; read-out: MIC.
The subject of the next assay is VISA ATCC 700699. As to the kind of experiment: MIC, agar dilution, VISA ATCC 700699. The class given is cell-based. To be noted: Staphylococcus aureus; VISA ATCC 700699; read-out: MIC.
The test system of another assay is MRSA ATCC -BAA-976. As to the kind of experiment: MIC, agar dilution, MRSA ATCC-BAA-976 (clindamycin-resistant). The assay is classed as cell-based. To be noted: Staphylococcus aureus; MRSA ATCC-BAA-976, clindamycin-resistant S. aureus; read-out: MIC.
The next assay has as its system VISA ATCC 700698. The assay can be described thus: MIC, agar dilution, VISA ATCC 700698. The assay is classed as cell-based. The following applies: Staphylococcus aureus; VISA ATCC 700698; read-out: MIC.
A further assay has as its system MSSA 15. The assay can be described thus: MIC, agar dilution, MSSA 15 (clinical isolate). To be noted: Staphylococcus aureus; MSSA 15, isolated from patients in China; read-out: MIC. The assay is classed as cell-based, S. aureus.
Another assay concerns MSSE 16-5. The assay can be described thus: MIC, agar dilution, MSSE 16-5 (clinical isolate). The assay is classed as cell-based, S. epidermidis. The following applies: Staphylococcus epidermidis; MSSE 16-5, isolated from patients in China; read-out: MIC.
For another assay, the system named is MRSA 16-34. As to the kind of experiment: MIC, agar dilution, MRSA 16-34. The following applies: Staphylococcus aureus; MRSA 16-34; read-out: MIC. The assay is classed as cell-based.
The subject of the next assay is MSSA 16-1. The assay can be described thus: MIC, agar dilution, MSSA 16-1 (clinical isolate). The class given is cell-based, S. aureus. To be noted: Staphylococcus aureus; MSSA 16-1, isolated from patients in China; read-out: MIC.

Turning to `COc1ccc2c(c[n+]3ccc4cc5c(c6c(Cc7ccc(F)cc7F)cc2c3c46)OCO5)c1O` [13c, 1,2-Methylenedioxy-8-hydroxy-9-methoxy-13-2′,4′-difluorobenzylcycloberberine chloride], the MIC was 8 µg/mL in the assay with S.h ATCC 35982; 4 µg/mL with MRSA ATCC-B AA-1708; 8 µg/mL in the assay with MRSA ATCC 43300; 8 µg/mL with MRSA 13-23; 8 µg/mL with MRSE 13-3; 8 µg/mL with MSSE ATCC 12228. Further, the MIC in the assay on MSSA ATCC 29213 is 8 µg/mL; in the assay on S.s ATCC 15305 it was 16 µg/mL; in the assay on MRSA 13-18, 16 µg/mL; in the assay on MRSE 16-5 it was 8 µg/mL; in the assay on VISA ATCC 700699 it was 8 µg/mL; in the assay with MRSA ATCC -BAA-976, 8 µg/mL. In addition, the MIC in the assay with VISA ATCC 700698, in the assay with MSSA 15, with MSSE 16-5, with MRSA 16-34 and with MSSA 16-1 was 8 µg/mL throughout.
For the molecule `COc1ccc2c(c[n+]3ccc4cc5c(c6c(Cc7c(F)cccc7F)cc2c3c46)OCO5)c1O` [13d, 1,2-Methylenedioxy-8-hydroxy-9-methoxy-13-2′,6′-difluorobenzylcycloberberine chloride], the MIC in the assay on S.h ATCC 35982, in the assay with MRSA ATCC-B AA-1708, in the assay on MRSA ATCC 43300, with MRSA 13-23, with MRSE 13-3 and with MSSE ATCC 12228 was over 64 µg/mL in each case. In addition, the MIC with MSSA ATCC 29213 is over 64 µg/mL; with S.s ATCC 15305 it was over 64 µg/mL; with MRSA 13-18 it was over 64 µg/mL; with MRSE 16-5, 32 µg/mL; in the assay on VISA ATCC 700699, over 64 µg/mL; in the assay on MRSA ATCC -BAA-976, over 64 µg/mL. Further, the minimal inhibitory concentration (MIC) in the assay with VISA ATCC 700698, in the assay with MSSA 15, with MSSE 16-5, in the assay on MRSA 16-34 and with MSSA 16-1 was over 64 µg/mL in each case.
Turning to `COc1ccc2c(c[n+]3ccc4cc5c(c6c(Cc7ccccc7C)cc2c3c46)OCO5)c1O` [13g, 1,2-Methylenedioxy-8-hydroxy-9-methoxy-13-o-methylbenzylcycloberberine chloride], the MIC in the assay with S.h ATCC 35982 is over 64 µg/mL; with MRSA ATCC-B AA-1708, over 64 µg/mL; in the assay on MRSA ATCC 43300, over 64 µg/mL; with MRSA 13-23 it was over 64 µg/mL; in the assay on MRSE 13-3 it was 64 µg/mL; in the assay with MSSE ATCC 12228, over 64 µg/mL. In addition, the MIC is over 64 µg/mL in the assay on MSSA ATCC 29213; over 64 µg/mL with S.s ATCC 15305; over 64 µg/mL in the assay with MRSA 13-18; 64 µg/mL in the assay on MRSE 16-5; over 64 µg/mL with VISA ATCC 700699; over 64 µg/mL in the assay on MRSA ATCC -BAA-976. The MIC with VISA ATCC 700698, with MSSA 15, in the assay with MSSE 16-5, in the assay on MRSA 16-34 and in the assay on MSSA 16-1 was over 64 µg/mL in each case.
In the case of `COc1ccc2c(c[n+]3ccc4cc5c(c6c(Cc7cc(C)cc(C)c7)cc2c3c46)OCO5)c1O` [13j, 1,2-Methylenedioxy-8-hydroxy-9-methoxy-13-3′,5′-dimethylbenzylcycloberberine chloride], the MIC with S.h ATCC 35982 is 32 µg/mL; in the assay with MRSA ATCC-B AA-1708, 16 µg/mL; in the assay with MRSA ATCC 43300, 32 µg/mL; with MRSA 13-23 it was 32 µg/mL; in the assay with MRSE 13-3, 16 µg/mL; with MSSE ATCC 12228 it was 32 µg/mL. Moreover, the MIC in the assay on MSSA ATCC 29213 was 32 µg/mL; with S.s ATCC 15305, 64 µg/mL; with MRSA 13-18 it was 32 µg/mL; with MRSE 16-5, 16 µg/mL; in the assay on VISA ATCC 700699, 32 µg/mL; with MRSA ATCC -BAA-976 it was 32 µg/mL. The minimal inhibitory concentration (MIC) in the assay on VISA ATCC 700698 worked out at 32 µg/mL; in the assay with MSSA 15 it was 32 µg/mL; with MSSE 16-5 it was 16 µg/mL; with MRSA 16-34, 16 µg/mL; in the assay with MSSA 16-1 it was 32 µg/mL.
